Results on 21 molecules are retold here after patent US20080242663A1, “NOVEL PYRIMIDINE DERIVATIVES 698” (ASTRAZENECA AB, priority 2007, published 2008).

pIC50: −log10 of the molar value.

In general, pIC50 refers to −log10 of the IC50, conventionally taken in molar units.

This experiment has as its target T1, recombinant EphB4 (Homo sapiens, UniProt P54760).
T1 construct: amino acids 563-987; Swiss-Prot Acc; No. P54760; purchased ProQinase GmbH 0178-0000-3
T1 sequence (P54760 563-987): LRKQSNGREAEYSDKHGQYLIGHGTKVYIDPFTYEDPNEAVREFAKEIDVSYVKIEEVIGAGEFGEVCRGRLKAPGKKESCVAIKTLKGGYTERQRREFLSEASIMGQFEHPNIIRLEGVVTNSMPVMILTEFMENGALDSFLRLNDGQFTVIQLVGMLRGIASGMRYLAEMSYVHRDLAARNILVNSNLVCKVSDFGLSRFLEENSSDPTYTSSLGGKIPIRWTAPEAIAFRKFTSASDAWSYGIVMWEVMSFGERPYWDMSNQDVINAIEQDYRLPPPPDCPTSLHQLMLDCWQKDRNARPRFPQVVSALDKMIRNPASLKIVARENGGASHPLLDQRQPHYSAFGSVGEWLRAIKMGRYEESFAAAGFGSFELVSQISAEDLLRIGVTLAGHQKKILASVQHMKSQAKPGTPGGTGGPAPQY
Nature of the experiment: In vitro EphB4 enzyme assay (Alphascreen). The class given is biochemical. In outline:
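Recombinant EphB4 phosphorylated biotin-poly-GAT with Mg-ATP for 1 hr at room temperature; EDTA stop, then Alphascreen donor/acceptor (anti-phosphotyrosine) beads for 20 hrs in the dark. After minimum subtraction, signal plotted against compound concentration to derive IC50.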
`C[C@@H](CO)NC(=O)c1cc(Nc2nccc(N(C)c3cccc(Cl)c3)n2)cc(N2CCOCC2)c1` [Example 19.21, 3-[[4-[(3-chlorophenyl)-methyl-amino]pyrimidin-2-yl]amino]-N-[(2S)-1-hydroxypropan-2-yl]-5-morpholin-4-yl-benzamide]: the pIC50 is 6.28. Next, `CN(c1cccc(Cl)c1)c1ccnc(Nc2cc(C(=O)N3CC[C@@H](O)C3)cc(N3CCOCC3)c2)n1` [Example 19.22, [3-[[4-[(3-chlorophenyl)-methyl-amino]pyrimidin-2-yl]amino]-5-morpholin-4-yl-phenyl]-[(3R)-3-hydroxypyrrolidin-1-yl]methanone]: 6.92; `C[C@H](CO)NC(=O)c1cc(Nc2nccc(N(C)c3cccc(Cl)c3)n2)cc(N2CCOCC2)c1` [Example 19.23, 3-[[4-[(3-chlorophenyl)-methyl-amino]pyrimidin-2-yl]amino]-N-[(2R)-1-hydroxypropan-2-yl]-5-morpholin-4-yl-benzamide]: 5.88; `CN(c1cccc(Cl)c1)c1ccnc(Nc2cc(C(=O)NC3CCOCC3)cc(N3CCOCC3)c2)n1` [Example 19.24, 3-[[4-[(3-chlorophenyl)-methylamino]pyrimi-din-2-yl]amino]-5-morpholin-4-yl-N-(oxan-4-yl)benzamide]: 6.00.

For `CCNC(=O)c1cc(Nc2nccc(N(C)c3cccc(Cl)c3)n2)cc(N2CCOCC2)c1` [Example 19.25, 3-[[4-[(3-chlorophenyl)-methylamino]pyrimidin-2-yl]amino]-N-ethyl-5-morpholin-4-ylbenzamide], the negative-log IC50 (pIC50) is 6.06. Turning to `COc1cccc(N(c2ccnc(Nc3cc(N4CCOCC4)cc(N4CCOCC4)c3)n2)C(C)C)c1` [Example 20, N2-(3,5-dimorpholinophenyl)-N4-isopropyl-N4-(3-methoxyphenyl)pyrimidine-2,4-diamine], the pIC50 was 6.04. The figure for `Cc1ccc(CO)cc1N(CCO)c1ccnc(Nc2cc(N3CCOCC3)cc(N3CCOCC3)c2)n1` [Example 21.3] is 7.60; for `COCCN(c1ccnc(Nc2cc(N3CCOCC3)cc(N3CCOCC3)c2)n1)c1cc(OC)ccc1C` [Example 22.1, N-(3,5-dimorpholin-4-ylphenyl)-N′-(2-methoxyethyl)-N′-(5-methoxy-2-methyl-phenyl)pyrimidine-2,4-diamine] it is 5.83; for `COc1ccc(C)c(N(c2ccnc(Nc3cc(N4CCOCC4)cc(N4CCOCC4)c3)n2)C(C)C)c1` [Example 22.2, N-(3,5-dimorpholin-4-ylphenyl)-N′-(5-methoxy-2-methyl-phenyl)-N′-propan-2-yl-pyrimidine-2,4-diamine] it is 5.73. The figure for `CCN(c1ccnc(Nc2cc(N3CCOCC3)cc(N3CCOCC3)c2)n1)c1cc(OC)ccc1C` [Example 22.3, N-(3,5-dimorpholin-4-ylphenyl)-N′-ethyl-N′-(5-methoxy-2-methyl-phenyl)pyrimidine-2,4-diamine] is 5.92.

In the case of `COc1ccc(C)c(N(CCO)c2ccnc(Nc3cc(N4CCOCC4)cc(N4CCOCC4)c3)n2)c1` [Example 22.4, 2-[[2-[(3,5-dimorpholin-4-ylphenyl)amino]pyrimidin-4-yl]-(5-methoxy-2-methyl-phenyl)amino]ethanol], the pIC50 was 6.10. Take `CN(c1cccc(Cl)c1)c1ccnc(Nc2cc(N3CCOCC3)cc(N3CCC(O)CC3)c2)n1` [Example 23, 1-[3-({4-[(3-chlorophenyl)(methyl)amino]pyrimidin-2-yl}amino)-5-morpholin-4-ylphenyl]piperidin-4-ol]: the pIC50 was 8.77. Take `CN1CCN(c2cc(Nc3nccc(N(C)c4cccc(Cl)c4)n3)cc(N3CCOCC3)c2)CC1` [Example 24, N4-(3-chlorophenyl)-N4-methyl-N2-[3-(4-methylpiperazin-1-yl)-5-morpholin-4-ylphenyl]pyrimidine-2,4-diamine]: the pIC50 was 9.24. The figure for `Cc1cccc(CO)c1N(C)c1ccnc(Nc2cc(N3CCOCC3)cc(N3CCOCC3)c2)n1` [Example 25.1, (2-((2-(3,5-dimorpholinophenylamino)pyrimidin-4-yl)(methyl)amino)-3-methylphenyl)methanol] is 7.28. The figure for `COc1cccc(C)c1N(C)c1ccnc(Nc2cc(N3CCOCC3)cc(N3CCOCC3)c2)n1` [Example 25.2, N2-(3,5-dimorpholinophenyl)-N4-(2-methoxy-6-methylphenyl)-N4-methylpyrimidine-2,4-diamine] is 7.11. For the molecule `CN(c1ccnc(Nc2cc(N3CCOCC3)cc(N3CCOCC3)c2)n1)c1cc(CO)ccc1F` [Example 25.3, (3-((2-(3,5-dimorpholinophenylamino)pyrimidin-4-yl)(methyl)amino)-4-fluorophenyl)methanol], the pIC50 was 7.94. Take `CN(c1ccnc(Nc2cc(N3CCOCC3)cc(N3CCOCC3)c2)n1)c1cccc(CO)c1F` [Example 25.4, (3-((2-(3,5-dimorpholinophenylamino)pyrimidin-4-yl)(methyl)amino)-2-fluorophenyl)methanol]: the pIC50 was 7.94. As to `CC(=O)c1ccc(C)c(N(C)c2ccnc(Nc3cc(N4CCOCC4)cc(N4CCOCC4)c3)n2)c1` [Example 25.5, 1-(3-((2-(3,5-dimorpholinophenylamino)pyrimidin-4-yl)(methyl)amino)-4-methylphenyl)ethanone], the pIC50 was 6.90. Next, `COc1ccc(F)c(N(C)c2ccnc(Nc3cc(N4CCOCC4)cc(N4CCOCC4)c3)n2)c1` [Example 25.6, N2-(3,5-dimorpholinophenyl)-N4-(2-fluoro-5-methoxyphenyl)-N4-methylpyrimidine-2,4-diamine]: 8.10; `COc1ccc(CO)c(N(C)c2ccnc(Nc3cc(N4CCOCC4)cc(N4CCOCC4)c3)n2)c1` [Example 25.7, (2-((2-(3,5-dimorpholinophenylamino)pyrimidin-4-yl)(methyl)amino)-4-methoxyphenyl)methanol]: 7.99. As for `CN(c1ccnc(Nc2cc(N3CCOCC3)cc(N3CCOCC3)c2)n1)c1cc(Cl)ccc1CO` [Example 25.8, (4-chloro-2-((2-(3,5-dimorpholinophenylamino)pyrimidin-4-yl)(methyl)amino)phenyl)methanol], the pIC50 is 8.19.
